# Data as given in patent US20260184697A1, “EZH1/2 INHIBITOR, PREPARATION THEREOF, AND USE THEREOF IN ANTI-TUMOR THERAPY” (JIANGSU TASLY DIYI PHARMACEUTICAL CO., LTD., priority 2022, published 2026).
# Test system: Karpas-422 cells
# Experiment: Anti-proliferation by Cell Titer-Glo method (Test Example 3)
# Type: cell-based
# Conditions: Homo sapiens; Karpas-422 cells, Cell-Titer Glo on the eleventh day; read-out: Test Example 3 Karpas-422 cell anti-proliferation IC50
# Procedure: Karpas-422 (Nanjing Kebai, CBP60629) cells were seeded in a 96-well plate (Corning, 3894) at 1,000 cells per well in growth medium (80% 1640 (Hyclone, SH30809.01)+20% FBS (Corning, 35-081-CV)), in a total of 100 μL, and then was added with 25 μL of 5-fold different concentrations of compounds diluted in growth medium. The cell growth group without compound addition was used as a positive control (maximum signal control), and the medium was used as a negative control (minimum signal control), while ensuring that the final contration of DMSO in each reaction well was 0.2%. Then the 96-well cell plate was placed in a cell culture incubator (37° C., 5% CO2) and incubated for 3 days. On the fourth day, the cell culture plate was taken out of the incubator, using a row gun to gently blow the cells up and down to mix, removing 62.5 μL of the cell suspension, adding 50 μL of growth medium and 12.5 μL of compounds of 5 times different concentrations, and then putting them in the cell incubator to incubate for 4 days. On the eighth day, the same method was used as the fourth day to treat the cells, then incubating in the cell culture incubator for 3 days. On the eleventh day, the Cell-Titer Glo (Promega, G7573) was used to detect cell viability, and a microplate reader was used to detect the signal value of luminescence.
# The inhibition rate of different concentrations of compounds on cells was calculated as inhibition rate=[1−(compound signal value−negative control signal value)/(positive control signal value-negative control signal value)][…]. The IC50 of the compound on cell activity inhibition was calculated by GraphPad Prism 6 with log(inhibitor) vs. response-Variable slope model fitting. The fitting equation is: Y=Bottom+(Top−Bottom)/(1+10^((Log IC50−X)*Hill Slope)), wherein Y represents the inhibition rate, and X represents the known concentration of the compound after Log.
row,IC50 [nM],Structure (SMILES)
1,2.5,COc1cc(C)[nH]c(=O)c1CNC(=O)c1cc(Cl)c2c(c1C)O[C@@H]([C@H]1CC[C@@H](N3CC(OCCF)C3)CC1)CO2 [Compound 109]
2,2.7,COC1CN([C@H]2CC[C@@H]([C@H]3COc4c(Cl)cc(C(=O)NCc5c(SC)cc(C)[nH]c5=O)c(Cl)c4O3)CC2)C1 [Compound 149]
3,3.7,COC1CN([C@H]2CC[C@@H]([C@H]3COc4c(C#N)cc(C(=O)NCc5c(SC)cc(C)[nH]c5=O)c(C)c4O3)CC2)C1 [Compound 153]
4,2.3,CSc1cc(C)[nH]c(=O)c1CNC(=O)c1cc(C#N)c2c(c1C)O[C@@H]([C@H]1CC[C@@H](N3CC(OC4CC4)C3)CC1)CO2 [Compound 159]
5,2.4,CSc1cc(C)[nH]c(=O)c1CNC(=O)c1cc(C#N)c2c(c1C)O[C@@H]([C@H]1CC[C@@H](N3CC(OCCF)C3)CC1)CO2 [Compound 161]
6,1.8,COC1CN([C@H]2CC[C@@H]([C@H]3COc4c(F)cc(C(=O)NCc5c(SC)cc(C)[nH]c5=O)c(C)c4O3)CC2)C1 [Compound 169]
7,13.6,COC1CN([C@H]2CC[C@@H]([C@H]3COc4c(Cl)cc(C(=O)NCc5c(Cl)cc(C)[nH]c5=O)c(C)c4O3)CC2)C1 [Compound 175]

# Target: T1, EZH1/SUZ/EED (Homo sapiens, UniProt O75530+Q15022+Q92800)
# T1 construct: purchased BPS 51006
# Experiment: Inhibitory effect on EZH1 by the MTase-Glo method (Test Example 1)
# Type: biochemical
# Conditions: EZH1/SUZ/EED 25 nM, H3 peptide 10 μM, SAM 3 μM, 30° C. 3 h, read-out: Test Example 1 WT EZH1 IC50
# Summary of the method: (§1)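 EZH2/SUZ/EED (6.25 nM) or EZH1/SUZ/EED (25 nM) pre-incubated 15 min with compound in pH 7.6 Bicine buffer, 0.5% DMSO. Biotinylated H3(21-44) peptide 10 μM plus SAM 3 μM reacted 3 h at 30 °C; MTase-Glo luminescence normalized to controls, IC50 from variable-slope fit.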
# T1 sequence (Q92800 2-747 limits assumed): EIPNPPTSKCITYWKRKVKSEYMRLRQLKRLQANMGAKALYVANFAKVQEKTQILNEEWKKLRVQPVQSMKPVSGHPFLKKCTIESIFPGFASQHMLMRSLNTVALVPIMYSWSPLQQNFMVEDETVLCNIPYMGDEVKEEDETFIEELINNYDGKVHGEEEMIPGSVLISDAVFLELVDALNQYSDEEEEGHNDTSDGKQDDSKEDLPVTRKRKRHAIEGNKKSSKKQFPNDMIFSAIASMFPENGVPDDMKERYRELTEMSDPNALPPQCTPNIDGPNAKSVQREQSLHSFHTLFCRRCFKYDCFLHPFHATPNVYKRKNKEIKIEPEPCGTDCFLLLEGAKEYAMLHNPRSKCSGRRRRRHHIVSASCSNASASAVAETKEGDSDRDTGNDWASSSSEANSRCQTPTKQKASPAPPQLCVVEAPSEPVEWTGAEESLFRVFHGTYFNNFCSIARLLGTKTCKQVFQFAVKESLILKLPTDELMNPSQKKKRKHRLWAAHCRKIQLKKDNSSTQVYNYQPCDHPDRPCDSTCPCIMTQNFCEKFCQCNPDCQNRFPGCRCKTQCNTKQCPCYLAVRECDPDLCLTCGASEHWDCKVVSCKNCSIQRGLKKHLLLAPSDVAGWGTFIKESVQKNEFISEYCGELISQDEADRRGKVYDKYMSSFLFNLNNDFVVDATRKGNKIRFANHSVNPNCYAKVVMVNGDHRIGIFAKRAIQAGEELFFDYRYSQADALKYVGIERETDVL
# T1 sequence (Q15022 2-739 partner limits assumed): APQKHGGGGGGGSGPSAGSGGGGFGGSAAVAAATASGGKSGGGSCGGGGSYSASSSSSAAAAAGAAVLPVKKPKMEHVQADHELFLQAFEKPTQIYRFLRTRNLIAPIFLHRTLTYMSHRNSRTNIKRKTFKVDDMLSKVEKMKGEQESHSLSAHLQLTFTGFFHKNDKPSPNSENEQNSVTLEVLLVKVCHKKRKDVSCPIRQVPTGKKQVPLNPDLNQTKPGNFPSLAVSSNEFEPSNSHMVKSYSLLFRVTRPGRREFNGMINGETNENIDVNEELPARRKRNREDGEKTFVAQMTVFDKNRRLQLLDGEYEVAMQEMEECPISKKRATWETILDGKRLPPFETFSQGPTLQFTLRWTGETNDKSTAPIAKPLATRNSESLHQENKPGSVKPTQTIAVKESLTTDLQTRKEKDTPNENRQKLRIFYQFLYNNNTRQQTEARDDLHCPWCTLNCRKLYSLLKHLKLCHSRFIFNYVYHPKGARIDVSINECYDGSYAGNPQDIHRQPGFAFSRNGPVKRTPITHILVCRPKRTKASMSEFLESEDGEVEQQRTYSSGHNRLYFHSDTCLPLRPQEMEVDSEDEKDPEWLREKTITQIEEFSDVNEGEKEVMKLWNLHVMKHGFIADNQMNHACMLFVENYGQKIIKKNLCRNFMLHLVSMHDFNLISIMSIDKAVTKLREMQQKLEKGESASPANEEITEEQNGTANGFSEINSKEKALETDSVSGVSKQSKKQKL
# T1 sequence (O75530 2-441 partner limits assumed): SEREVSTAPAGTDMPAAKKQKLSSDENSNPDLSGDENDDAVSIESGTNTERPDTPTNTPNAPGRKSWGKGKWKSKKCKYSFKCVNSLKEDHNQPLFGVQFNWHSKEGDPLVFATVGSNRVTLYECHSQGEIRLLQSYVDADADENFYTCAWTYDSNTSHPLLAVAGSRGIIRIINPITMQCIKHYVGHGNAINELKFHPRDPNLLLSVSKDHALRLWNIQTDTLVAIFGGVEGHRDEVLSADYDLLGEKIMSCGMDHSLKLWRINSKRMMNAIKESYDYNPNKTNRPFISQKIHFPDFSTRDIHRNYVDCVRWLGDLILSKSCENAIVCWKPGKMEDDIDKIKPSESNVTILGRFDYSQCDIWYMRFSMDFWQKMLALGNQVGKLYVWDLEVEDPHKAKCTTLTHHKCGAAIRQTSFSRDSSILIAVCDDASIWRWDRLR
row,IC50 [nM],Structure (SMILES)
1,3.8,COc1cc(C)[nH]c(=O)c1CNC(=O)c1cc(Cl)c2c(c1C)O[C@@H]([C@H]1CC[C@@H](N3CC(OCCF)C3)CC1)CO2 [Compound 109]
2,3.3,COC1CN([C@H]2CC[C@@H]([C@H]3COc4c(Cl)cc(C(=O)NCc5c(SC)cc(C)[nH]c5=O)c(Cl)c4O3)CC2)C1 [Compound 149]
3,6.9,COC1CN([C@H]2CC[C@@H]([C@H]3COc4c(C#N)cc(C(=O)NCc5c(SC)cc(C)[nH]c5=O)c(C)c4O3)CC2)C1 [Compound 153]
4,7,CSc1cc(C)[nH]c(=O)c1CNC(=O)c1cc(C#N)c2c(c1C)O[C@@H]([C@H]1CC[C@@H](N3CC(OC4CC4)C3)CC1)CO2 [Compound 159]
5,5.5,CSc1cc(C)[nH]c(=O)c1CNC(=O)c1cc(C#N)c2c(c1C)O[C@@H]([C@H]1CC[C@@H](N3CC(OCCF)C3)CC1)CO2 [Compound 161]
6,5.8,COC1CN([C@H]2CC[C@@H]([C@H]3COc4c(F)cc(C(=O)NCc5c(SC)cc(C)[nH]c5=O)c(C)c4O3)CC2)C1 [Compound 169]
7,16.6,COC1CN([C@H]2CC[C@@H]([C@H]3COc4c(Cl)cc(C(=O)NCc5c(Cl)cc(C)[nH]c5=O)c(C)c4O3)CC2)C1 [Compound 175]

# Target: T2, EZH2/SUZ/EED (Homo sapiens, UniProt O75530+Q15022+Q15910)
# T2 construct: purchased BPS 51003
# Experiment: Inhibitory effect on EZH2 by the MTase-Glo method (Test Example 1)
# Type: biochemical
# Conditions: EZH2/SUZ/EED 6.25 nM, H3 peptide 10 μM, SAM 3 μM, 30° C. 3 h, read-out: Test Example 1 WT EZH2 IC50
# Summary of the method: as §1
# T2 sequence (Q15910 2-746 limits assumed): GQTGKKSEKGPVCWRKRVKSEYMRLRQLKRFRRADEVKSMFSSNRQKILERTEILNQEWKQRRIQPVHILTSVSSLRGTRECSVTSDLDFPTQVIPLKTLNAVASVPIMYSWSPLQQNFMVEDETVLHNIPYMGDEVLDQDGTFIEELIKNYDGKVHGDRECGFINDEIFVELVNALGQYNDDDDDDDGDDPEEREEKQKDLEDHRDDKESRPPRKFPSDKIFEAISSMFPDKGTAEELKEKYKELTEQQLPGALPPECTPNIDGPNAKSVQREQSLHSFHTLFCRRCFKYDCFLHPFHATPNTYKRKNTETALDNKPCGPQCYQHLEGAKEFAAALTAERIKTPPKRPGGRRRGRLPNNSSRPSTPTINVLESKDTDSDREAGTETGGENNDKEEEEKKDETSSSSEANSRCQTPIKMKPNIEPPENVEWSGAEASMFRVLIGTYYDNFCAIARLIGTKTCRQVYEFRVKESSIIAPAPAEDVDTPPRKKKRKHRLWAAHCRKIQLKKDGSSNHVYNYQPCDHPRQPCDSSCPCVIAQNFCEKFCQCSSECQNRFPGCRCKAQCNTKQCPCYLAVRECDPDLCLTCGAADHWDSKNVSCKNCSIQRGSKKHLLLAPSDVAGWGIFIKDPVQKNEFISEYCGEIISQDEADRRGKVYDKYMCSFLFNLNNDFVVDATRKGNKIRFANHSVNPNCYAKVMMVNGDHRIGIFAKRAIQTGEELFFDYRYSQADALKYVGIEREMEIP
# T2 sequence (Q15022 2-739 partner limits assumed): as the sequence (Q15022 2-739 partner limits assumed) above
# T2 sequence (O75530 2-441 partner limits assumed): as the sequence (O75530 2-441 partner limits assumed) above
row,IC50 [nM],Structure (SMILES)
1,2,COc1cc(C)[nH]c(=O)c1CNC(=O)c1cc(Cl)c2c(c1C)O[C@@H]([C@H]1CC[C@@H](N3CC(OCCF)C3)CC1)CO2 [Compound 109]
2,2.3,COC1CN([C@H]2CC[C@@H]([C@H]3COc4c(Cl)cc(C(=O)NCc5c(SC)cc(C)[nH]c5=O)c(Cl)c4O3)CC2)C1 [Compound 149]
3,3.2,COC1CN([C@H]2CC[C@@H]([C@H]3COc4c(C#N)cc(C(=O)NCc5c(SC)cc(C)[nH]c5=O)c(C)c4O3)CC2)C1 [Compound 153]
4,1.1,CSc1cc(C)[nH]c(=O)c1CNC(=O)c1cc(C#N)c2c(c1C)O[C@@H]([C@H]1CC[C@@H](N3CC(OC4CC4)C3)CC1)CO2 [Compound 159]
5,3.7,CSc1cc(C)[nH]c(=O)c1CNC(=O)c1cc(C#N)c2c(c1C)O[C@@H]([C@H]1CC[C@@H](N3CC(OCCF)C3)CC1)CO2 [Compound 161]
6,6,COC1CN([C@H]2CC[C@@H]([C@H]3COc4c(F)cc(C(=O)NCc5c(SC)cc(C)[nH]c5=O)c(C)c4O3)CC2)C1 [Compound 169]
7,3.4,COC1CN([C@H]2CC[C@@H]([C@H]3COc4c(Cl)cc(C(=O)NCc5c(Cl)cc(C)[nH]c5=O)c(C)c4O3)CC2)C1 [Compound 175]

# Test system: H3K27Me3 methylation in Karpas-422 cells
# Experiment: H3K27Me3 cell method, inhibition of H3K27Me3 methylation (Test Example 2)
# Type: cell-based, human
# Conditions: Homo sapiens, KARPAS-422, 72 h, Karpas-422 cells, 3 days incubation, HTRF signal; read-out: Test Example 2 H3K27Me3 inhibition (Karpas-422) IC50
# Summary of the method: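 Karpas-422 cells, 15,000/well in 80% RPMI 1640 + 20% FBS, treated with compound dilutions (final DMSO 0.2%) for 3 days at 37 °C, 5% CO2. Cellular H3K27Me3 read by HTRF; viability in parallel by CCK8 at OD405. IC50 from log(inhibitor)-response variable-slope fit of inhibition rate.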
row,IC50 [nM],Structure (SMILES)
1,1.8,COc1cc(C)[nH]c(=O)c1CNC(=O)c1cc(Cl)c2c(c1C)O[C@@H]([C@H]1CC[C@@H](N3CC(OCCF)C3)CC1)CO2 [Compound 109]
2,3.6,COC1CN([C@H]2CC[C@@H]([C@H]3COc4c(Cl)cc(C(=O)NCc5c(SC)cc(C)[nH]c5=O)c(Cl)c4O3)CC2)C1 [Compound 149]
3,6.2,COC1CN([C@H]2CC[C@@H]([C@H]3COc4c(C#N)cc(C(=O)NCc5c(SC)cc(C)[nH]c5=O)c(C)c4O3)CC2)C1 [Compound 153]
4,1.4,CSc1cc(C)[nH]c(=O)c1CNC(=O)c1cc(C#N)c2c(c1C)O[C@@H]([C@H]1CC[C@@H](N3CC(OC4CC4)C3)CC1)CO2 [Compound 159]
5,2.2,CSc1cc(C)[nH]c(=O)c1CNC(=O)c1cc(C#N)c2c(c1C)O[C@@H]([C@H]1CC[C@@H](N3CC(OCCF)C3)CC1)CO2 [Compound 161]
6,4.2,COC1CN([C@H]2CC[C@@H]([C@H]3COc4c(F)cc(C(=O)NCc5c(SC)cc(C)[nH]c5=O)c(C)c4O3)CC2)C1 [Compound 169]
7,16.1,COC1CN([C@H]2CC[C@@H]([C@H]3COc4c(Cl)cc(C(=O)NCc5c(Cl)cc(C)[nH]c5=O)c(C)c4O3)CC2)C1 [Compound 175]
